Assays:
[1] = test system: ARPE-19 cells; test: Lysosomal pH (pHL) with LysoSensor Yellow/Blue, high through-put screen; format: cell-based, human; conditions: for effect on pHL of cells treated with tamoxifen: tamoxifen concentration not stated, A68930 and A77636 at 1 μM; for effect on pHL, agent alone: cells without other alkalinizing agent, NH4Cl 10 mM, BAF 200 nM, CHQ 20 μM, CFTR-172 10 μM, LDL 10 μg/ml, others not given; for effect on pHL of cells treated with chloroquine: chloroquine (20 μM with CGS21680 100 nM); for effect on pHL of cells treated with 30 μM tamoxifen: CFTRAct16 at 10 μM
Protocol: Lysosensor Yellow/Blue co-localized with the Lysotracker Red dye in small vesicles, with a distribution consistent with lysosomal origin. Measurements of pHL were performed using a high throughput screening (HTS) protocol to maximize output and minimize variation using ARPE-19 cells in 96 well plates. […] Loading for 5 min. at 23° C. with 5 μM lysosensor, followed by 15 min. for internalization, produced stable and reproducible results.
The ratio was converted to pH by calibrating with KCl buffered to pH 4.0-6.0 in the presence of monensin and nigericin. Calibration indicated a baseline pH of 4.4 to 4.5, supporting lysosomal localization. […] NH4Cl decreased the ratios slightly at 380 nm. Nevertheless, absent the addition of the dye, none of these compounds, or any others, altered the fluorescent signal at 340 or 380 nm, showing a specificity of the measured change to pHL. […] This quantification is necessary to predict the potential effectiveness of acidifying drugs to restore lysosomal enzyme activity.
Extensive trials determined that the optimal response is obtained with 5 minute dye loading and 15 minute post-incubation. […] All reagents were from Sigma Chemical Corp. unless otherwise indicated.
In general, each condition below used 3-12 independent wells per plate, in 3-6 separate plates. As levels from individual plates varied, data was normalized to the mean pHL for control wells from each plate. Fluorescent ratios were converted to pH following calibration performed on each plate as described. Incubation with Lysosensor Yellow/Blue was kept constant and all measurements were performed 15 min after removal of dye from the bath to ensure continuity. Significance was determined with a one-way ANOVA and Tukey post test. Drugs were always tested on control cells to ensure modification of healthy RPE cells was minimal, and cells were not exposed to dye to make sure effects were specific. All background was subtracted from the fluorescence excited at 340 and 380 nm independently before calculation of the ratio.

[2] = test system: ARPE-19 cells; test: FACS analysis of autofluorescence (excited at 488 nm); format: cell-based, human; conditions: for effect on autofluorescence enhanced by POS+CHQ: photoreceptor outer segments plus 10 μM chloroquine, 7 days
Text: To maintain a balance between the synthesis, degradation, and subsequent recycling of cellular products there are a variety of autophagic responses, but all involve degradation of intracellular components via the lysosome. Typically, autophagy involves the formation of a membrane around a targeted region of the cell, separating the contents from the rest of the cytoplasm, and then the resultant vesicle fuses with a lysosome and the contents are subsequently degraded.

[3] = test system: ARPE-19 cells; test: Clearance (degradation) of calcein-labeled photoreceptor outer segments; format: cell-based, human; conditions: 100 nM CGS with 20 μM CHQ, 24 hrs
Protocol: Outer Segment Degradation: Bovine retinas were homogenized in 20% sucrose with 130 mM NaCl, 20 mM Tris-HCl, 10 mM glucose, 5 mM taurine and 2 mM MgC12 (pH 7.20). The homogenate was placed in ultracentrifuge tubes with 20%, 27%, 33%, 41%, 50% and 60% sucrose, respectively, and centrifuged for 70 minutes at 28,000 rpm on a SW28 rotor (4° C.). The supernatant was filtered, diluted in 0.02M Tris-HCl buffer (pH 7.2) and centrifuged at 13,000×g for 10 minutes (4° C.). The pellet was resuspended in […], 0.1 mM NaCl and 2.5% sucrose. Outer segments were loaded with 5 μM calcein-AM in PBS for 10 minutes, and spun 2× at 14,000 rpm to wash. Outer segments were then diluted 1:100 in growth medium and added to ARPE-19 cells in 96-well plates.
Isolated bovine outer segments loaded with calcein were supplied to ARPE-19 cells in 96-well plates for 2 hrs, washed 3× and maintained in control medium for an additional 3 hr (see Methods). […] Promising compounds were examined for their effects on cells treated with A2E, although the restoration of pHL is unlikely to remove A2E itself. However, other components of the outer segments are amendable to digestion by lysosomal enzymes at the appropriate pHL, and acidification could minimize the secondary effect of this accumulation.

[4] = test system: primary cultures of bovine RPE cells; test: Lysosomal pH in primary bovine RPE cultures; format: cell-based; conditions: tamoxifen
Protocol: Isolation of Bovine and Mouse RPE Cells: The bovine RPE-choroid and sclera were removed, incubated in 2.5% trypsin at 37° C. in 5% CO2 for 30 min, after which RPE sheets are dissected, washed and plated in 96-well plates with 10% serum medium. Mouse eyes were incubated in DMEM for 3 hrs at room temperature (RT), then in 0.1% trypsin and 0.4 mg/ml collagenase IV with 1 mM EDTA for 45 min at RT. RPE sheets were dissected out, washed, and incubated with 0.25% trypsin/0.02% EDTA in order to obtain a suspension of single cells, then grown as above.
HTS Measurement of pHL: ARPE-19 cells were grown in 96-well plates, rinsed 3× with isotonic solution (IS; prepared from NaCl 105 mM, KCl 5 mM, HEPES Acid 6 mM, Na HEPES 4 mM, NaHCO3 5 mM, mannitol 60 mM, glucose 5 mM, MgCl2 0.5 mM, CaCl2 1.3 mM) and incubated with 5 μM LysoSensor Yellow/Blue (Invitrogen Corp.) diluted with IS. Extensive trials determined that the optimal response is obtained with 5 minute dye loading and 15 minute post-incubation. Fluorescence was measured with a Fluoroskan 96-well Plate Reader (Thermo Electron Corp.). pHL was determined from the ratio of light excited at 340 nm vs 380 nm ([…] em). pHL was calibrated by exposing cells to 10 μM H^+/Na^+ ionophore monensin and 20 μM H^+/K^+ ionophore nigericin in 20 MES, 110 KCl and 20 NaCl at pH 3.0-7.0 for 15 min. All reagents were from Sigma Chemical Corp. unless otherwise indicated.

In the case of `Nc1ncnc2c1nc(Br)n2[C@@H]1O[C@@H]2COP(=O)(O)O[C@H]2[C@H]1O` [8-Br-cAMP, 8-bromo-adenosine 3′,5′-cyclic monophosphate], the “effect on pHL of cells treated with 10 μM tamoxifen” value (“effect … with 10 μM tamoxifen” below) [1] is reported as “not significant”.
With `C[C@]12CC[C@@H]3c4ccc(O)cc4CC[C@H]3[C@@H]1CC[C@@H]2O` [17-β estradiol] the “effect on pHL of cells treated with tamoxifen” value [1] was “neither mimicked, nor inhibited”.
In the case of `CCCSc1nc(N)c2ncn([C@@H]3O[C@H](COP(=O)([O-])OP(=O)([O-])C(F)(F)P(=O)([O-])[O-])[C@@H](O)[C@H]3O)c2n1.[Na+].[Na+].[Na+].[Na+]` [AR-C66096, 2-(Propylthio) adenosine-5′-O-(β,γ-difluoromethylene) triphosphate tetrasodium salt], the “effect on pHL elevation by P2Y12 agonist MeSADP” value ([1]; cells stimulated with MeSADP) is reported as “inhibited these actions and restored lysosomal acidity” and the “effect on autofluorescence enhanced by POS+CHQ” value [2] is reported as “reduced this enhanced auto-fluorescence to near control levels”.
With `CCOc1ccc(Nc2ccc(/C(=C3C=C/C(=[N+](/CC)Cc4cccc(S(=O)(=O)[O-])c4)C=C/3C)c3ccc(N(CC)Cc4cccc(S(=O)(=O)[O-])c4)cc3C)cc2)cc1.[Na+]` [BBG] the “effect on pHL rise by P2X7 agonist BzATP” value ([1]; cells stimulated with BzATP) was “prevented this rise” and the “effect on autofluorescence enhanced by POS+CHQ” value [2] was “reduced this enhanced autofluorescence”.
For `O=C(O)c1ccc(/C=C2\SC(=S)N(c3cccc(C(F)(F)F)c3)C2=O)cc1` [CFTR-172], the “effect on pHL, agent alone” value [1] was “increased lysosomal pH”.
With `CCNC(=O)[C@H]1O[C@@H](n2cnc3c(N)nc(NCCc4ccc(CCC(=O)O)cc4)nc32)[C@H](O)[C@@H]1O` [CGS21680] the “effect … with 10 μM tamoxifen” value [1] was “Over half of the increase triggered by 10 μM tamoxifen was reversed”, the “effect on pHL of cells treated with chloroquine” value [1] was “decreased the lysosomal alkalinization” and the “effect on pHL of cells treated with tamoxifen” value [1] was “acidified the lysosomes”. The “degradative capacity (outer segment clearance) in chloroquine-treated cells” value [3] was “restored the degradative capacity”.
For `OC[C@H]1O[C@@H](n2cnc3c(NC4CCCC4)ncnc32)[C@H](O)[C@@H]1O` [CPA, N^6-cyclopentyl-adenosine], the “effect on pHL of cells treated with tamoxifen” value [1] was “had no effect”.
`OC[C@H]1O[C@@H](n2cnc3c(NC4CC5CCC4C5)ncnc32)[C@H](O)[C@@H]1O` (stereo partly drawn) [ENBA, (2S)-N^6-[2-endo-norbornyl]adenosine] was tested, and the “effect on pHL of cells treated with tamoxifen” value [1] was “had no effect”.
With `CSc1nc(N)c2ncn([C@@H]3O[C@H](COP(=O)(O)OP(=O)(O)O)[C@@H](O)[C@H]3O)c2n1` [MeSADP] the “effect on pHL, agent alone” value [1] was “elevated the lysosomal pHL”.
With `CCNC(=O)[C@H]1O[C@@H](n2cnc3c(N)ncnc32)[C@H](O)[C@@H]1O` [NECA, 5′-(N-ethylcarboxamido) adenosine] the “effect on pHL of bovine cells treated with tamoxifen” value [4] was “not quite significant” and the “effect on pHL of cells treated with tamoxifen” value [1] was “reversed lysosomal alkalinization by tamoxifen”.
In the case of `O=C(O)c1cc([N+](=O)[O-])ccc1NCCCc1ccccc1` [NPPB, 5-nitro-2-(3-phenylpropylamino)-benzoate], the “effect on pHL of cells treated with tamoxifen” value [1] is reported as “reversed”.
In the case of `Nc1ncnc2c1ncn2[C@@H]1O[C@H](CO)[C@@H](O)[C@H]1O` [adenosine], the “effect on pHL of bovine cells treated with tamoxifen” value [4] is reported as “acidified the lysosomes” and the “effect on pHL of cells treated with tamoxifen” value [1] is reported as “reduce the pHL”.
In the case of `CO/C1=C\C(C)=C\[C@@H](C)[C@@H](O)[C@@H](C)C/C(C)=C/C=C/[C@H](OC)[C@@H]([C@@H](C)[C@@H](O)[C@H](C)[C@@]2(O)C[C@@H](O)[C@H](C)[C@@H](C(C)C)O2)OC1=O` [bafilomycin-A], the “effect on pHL, agent alone” value [1] is reported as “pH was elevated”.
For `CCN(CC)CCCC(C)Nc1ccnc2cc(Cl)ccc12` (centres unmarked) [chloroquine], the “effect on pHL, agent alone” value [1] was “pH was elevated” and the “autofluorescence, agent alone” value ([2]; 10 μM for 7 days) was “increased autofluorescence”.
With `Nc1ncnc2c1nc(Sc1ccc(Cl)cc1)n2[C@@H]1O[C@@H]2COP(=O)([O-])O[C@H]2[C@H]1O.[Na+]` [cpt-cAMP, 8-(4-chlorophenylthio) adenosine-3′,5′-cyclic monophosphate] the “effect … with 10 μM tamoxifen” value [1] was “significantly decreased pHL” and the “effect on pHL of cells treated with 30 μM tamoxifen” value (“effect … with 30 μM tamoxifen” for short) [1] was “significantly decreased pHL”.
For `CCN[C@H]1C[C@H](C)S(=O)(=O)c2sc(S(N)(=O)=O)cc21` [dorzolamide], the “effect … with 30 μM tamoxifen” value [1] was “did not lower pHL”.
In the case of `CNC[C@H](O)c1ccc(O)c(O)c1` [epinephrine], the “effect on pHL of cells treated with tamoxifen” value [1] is reported as “significantly decrease pHL”.
`O=c1c(-c2ccc(O)cc2)coc2cc(O)cc(O)c12` [genistein] was tested, and the “effect on pHL, agent alone” value [1] was “smaller effects” and the “effect on pHL of cells treated with tamoxifen” value [1] was “acidified lysosomes”.
In the case of `COc1ccc(Cl)cc1C(=O)NCCc1ccc(S(=O)(=O)NC(=O)NC2CCCCC2)cc1` [glybenclamide], the “effect on pHL, agent alone” value [1] is reported as “smaller effects” and the “effect on pHL of cells treated with tamoxifen” value [1] is reported as “increased pHL”.
In the case of `CC(C)NCC(O)c1ccc(O)c(O)c1` (centres unmarked) [isoproterenol], the “effect on pHL of cells treated with tamoxifen” value [1] is reported as “significantly decrease pHL”.
With `CC(C)OC(=O)CCC/C=C\C[C@@H]1[C@@H](CC[C@@H](O)CCc2ccccc2)[C@H](O)C[C@@H]1O` [latanaprost] the “effect … with 30 μM tamoxifen” value [1] was “did not lower pHL”.
With `NC[C@H](O)c1ccc(O)c(O)c1` [norepinephrine] the “effect on pHL of cells treated with chloroquine” value [1] was “reduced pHL” and the “effect on pHL of cells treated with tamoxifen” value [1] was “significantly decrease pHL”.
In the case of `CNC[C@H](O)c1cccc(O)c1` [phenylephrine], the “effect on pHL of cells treated with tamoxifen” value [1] is reported as “no significant effect on pHL”.
With `CN[C@@H]1C[C@H]2O[C@@](C)([C@@H]1OC)n1c3ccccc3c3c4c(c5c6ccccc6n2c5c31)C(=O)NC4` [staurosporine] the “effect on pHL of cells treated with tamoxifen” value [1] was “decrease in lysosomal pH”.
With `CC(C)(C)NC[C@H](O)COc1nsnc1N1CCOCC1` [timolol] the “effect … with 30 μM tamoxifen” value [1] was “did not lower pHL” and the “effect on the reduction of pHL triggered by norepinephrine” value ([1]; cells treated with tamoxifen plus norepinephrine) was “blocked”.
